Data set [1] deals with rat hippocampal slices. Briefly: Epileptiform responses in hippocampal slices (field potentials in CA3 area). It is filed as cell-based, Sprague-Dawley rats. As to conditions: for effect on rate of spontaneous field bursting: HKLCF; for effect on epileptiform responses (evoked PS1 amplitude, repetitive PSs): HKLCF perfusion (K+ 7.5 mM; Ca2+ 0.5 mM), fimbrial stimulation. The arrangement: effect on rate of spontaneous field bursting: dose or concentration left out as unconfirmed. The method, then:
The effect of brivaracetam on epileptiform responses induced by high-K+/low-Ca2+ concentrations or by bicuculline was examined in transverse hippocampal slices prepared from Sprague-Dawley rats according to previously reported standard procedures. The epileptiform responses were induced by passing from a normal perfusion of artificial cerebrospinal fluid (ACSF) (K+3 mM; Ca2+2.4 mM) to either high-K+/low-Ca2+ fluid (HKLCF) (K+7.5 mM; Ca2+0.5 mM) or to […] bicuculline methiodide (BMI)-containing ACSF.
Extracellular field potentials (FPs) were recorded in the CA3 area of the slices with 2 M NaCl-filled glass microelectrodes. The evoked FPs were recorded at 10-min intervals in response to fimbrial stimulation with constant current rectangular pulses that elicit a single population spike (PS) of 50-75% of the maximal amplitude when the slice is in ACSF. In the HKLCF model, 2 min of spontaneous activity were also recorded, in the middle of each 10-min interval between the recordings of evoked responses.
Either brivaracetam or levetiracetam was added to the bathing fluid of the slices 20 min before shifting from ACSF to either HKLCF or […] BMI-containing ACSF, and was kept in the perfusion fluid throughout the experiment.

Data set [2] concerns fully amygdala-kindled rats. Put plainly: Fully amygdala-kindled rats. It counts as in vivo. To be noted: for dose significantly reducing after-discharge duration: highest dose tested.
Data set [3] relates to Genetically sound-sensitive male mice. Put plainly: Audiogenic seizures in mice. It counts as in vivo. To be noted: audiogenic seizure-susceptible mice, i.p. An excerpt:
Audiogenic seizures in mice: Genetically sound-sensitive male mice (16-28 g; n=10 per group), responding with wild running, clonic and tonic convulsions to an acoustic stimulation, were used. Audiogenic seizures were induced by an acoustic stimulus (90 dB, 10-20 kHz) applied for 30 s.

The subject of data set [4] is rat hippocampal slices. To be noted: background statement; cited from earlier work.
Data set [5] has as its system mice. Briefly: Chemically induced seizures in mice (pentylenetetrazol). As to conditions: i.p. 30 min before seizure induction; higher ED50 values than audiogenic model. It is filed as in vivo. The procedure: The dose was selected based on dose-effect curves in saline-treated animals as the convulsive dose inducing clonic convulsions of all four extremities in 97% of the animals. Immediately after administration of the chemoconvulsant, the mice were placed individually in small plastic cages (25 13 8 cm) and observed for the presence of clonic convulsions in all four extremities, for 60 min. The occurrence of tonic convulsions (hindlimb extension) and mortality was also recorded during this interval.

Data set [6] has as its system mice. Put plainly: Maximal electroshock in mice. It is filed as in vivo. As to conditions: i.p. 30 min before seizure induction; higher ED50 values than audiogenic model. (The maximal electroshock test induces tonic seizures with an electrical stimulus.)
The subject of a further data set is GAERS rats. Briefly: Spontaneous SWDs in GAERS rats. It counts as in vivo.
For data set [7], the system named is mice. Put plainly: Corneal kindling of mice. It counts as in vivo.
Data set [8] is described as follows: Water solubility of the active ingredient.

Values after ≈ are worked out from the molar mass of the structure shown.

Consider `CC[C@@H](C(N)=O)N1CCCC1=O` [Levetiracetam], for which, in the data set with rat hippocampal slices [1], the “effect on rate of spontaneous field bursting” value was “not” and the “effect on epileptiform responses (evoked PS1 amplitude, repetitive PSs)” value was “reduced these epileptiform responses”. Further, in data set [2], the “dose from which significant suppression in motor-seizure severity was induced” value amounted to 170 mg/kg and the “dose significantly reducing after-discharge duration” value is above 1700 mg/kg. The “protection against clonic convulsions” value in [3] was “protected against the expression of clonic convulsions”. In addition, the “effect on epileptiform responses induced by high-K+/low-Ca2+ and by bicuculline” value with rat hippocampal slices [4] is “reduces epileptiform responses”.

Usually solubility stands for the concentration that dissolves in the medium under given conditions. As for `CCC[C@@H]1CC(=O)N([C@@H](CC)C(N)=O)C1` [Brivaracetam, (2S)-2-[(4R)-2-oxo-4-propyl-pyrrolidin-1-yl]butanamide], the BCS class result in the data set “BCS classification” is recorded as “BCS I”. Besides, in the data set on rat hippocampal slices [1], the “effect on rate of spontaneous field bursting” value is given as “reduced the rate of this spontaneous bursting” and the “effect on epileptiform responses (evoked PS1 amplitude, repetitive PSs)” value is reported as “reduced these epileptiform responses”. Moreover, in data set [2], the “dose from which significant suppression in motor-seizure severity was induced” value was determined as 21.2 mg/kg and the “dose significantly reducing after-discharge duration” value was 212.3 mg/kg. The “protection against clonic convulsions” value in data set [3] is “protected against the expression of clonic convulsions”. The “protection against clonic convulsions induced by pentylenetetrazol” value in the data set on mice [5] is given as “protected against clonic convulsions”. Further, in the data set on mice [6], the “protection against tonic hindlimb extension induced by maximal electroshock” value was “protected”. In addition, the “dose from which spontaneous SWDs were significantly suppressed” value with GAERS rats was 2.1 mg/kg. Also, the “dose giving complete inhibition of spontaneous SWDs” value in the data set on GAERS rats (highest dose tested) was determined as 67.9 mg/kg. Besides, the “incidence of generalized motor seizures after termination of treatment” value in the data set on mice [7] (continued corneal stimulations, group previously treated with the highest dose) is “persistent reduction in the incidence of generalized motor seizures”. In addition, in the data set on mice [7] (pretreatment during corneal kindling), the “incidence of generalized motor seizures” value is on record as “significant reduction in the incidence of generalized motor seizures”. In data set [8], this molecule registered a solubility of around 700 mg/mL (≈ 3300 mM).

Source of the values: patent publication US8563036B2, “Pharmaceutical compositions comprising Brivaracetam” (UCB Pharma, S.A., priority 2009, dated 2013).
